Source: US20260262643A1, “HERBICIDAL BENZOXAZINES” (FMC CORPORATION, priority 2022, published 2026)

Columns and labels:
horseweed = assay: Test A postemergence; type: in vivo, Erigeron canadensis; details: postemergence, 10 days; for Horseweed plant response rating: 125 g ai/ha, 0 to 100 scale, 0 no effect, 100 complete control; for Plant response rating, Horseweed: 500 g ai/ha, visual injury, 0 to 100 scale (0 no effect, 100 complete control)
Outline: (§1)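 Weeds and crops in loam–sand blend were sprayed preemergence onto soil or postemergence at 2–10 cm (one- to two-leaf stage). Test chemicals were in a non-phytotoxic solvent with surfactant. After 10 days in the greenhouse, injury was rated visually against untreated controls on a 0 (no effect) to 100 (complete control) scale.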

soybean [1] = assay: Test A postemergence; type: in vivo, Glycine max; details: postemergence, 10 days; for Soybean plant response rating: 125 g ai/ha, 0 to 100 scale, 0 no effect, 100 complete control; for Plant response rating, Soybean: 500 g ai/ha, visual injury, 0 to 100 scale (0 no effect, 100 complete control)
Outline: as §1

ragweed [2] = assay: Test A postemergence; type: in vivo, Ambrosia artemisiifolia; details: postemergence, 10 days; for Ragweed plant response rating: 125 g ai/ha, 0 to 100 scale, 0 no effect, 100 complete control; for Plant response rating, Ragweed: 500 g ai/ha, visual injury, 0 to 100 scale (0 no effect, 100 complete control)
Outline: as §1

sedge, umbrella = assay: Test B flooded paddy test; type: in vivo, Cyperus difformis; details: 250 g ai/ha, Flood, 13 days, 0 to 100 scale (0 no effect, 100 complete control)
Outline: (§2)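 Application into standing water (3 cm above soil) at the two-leaf stage; flood depth held constant. Evaluation: day 13, visual comparison with controls, 0 = no injury, 100 = complete control.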

wheat [3] = assay: Test A preemergence; type: in vivo, Triticum aestivum; details: 0 to 100 scale
Outline: as §1

ragweed [4] = assay: Test A preemergence; type: in vivo, Ambrosia artemisiifolia; details: 0 to 100 scale
Outline: as §1

foxtail, giant [5] = assay: Test A preemergence; type: in vivo, Setaria faberi; details: 0 to 100 scale
Outline: as §1

ryegrass, Italian [6] = assay: Test A postemergence; type: in vivo, Lolium multiflorum; details: postemergence, 10 days; for Ryegrass, Italian plant response rating: 125 g ai/ha, 0 to 100 scale, 0 no effect, 100 complete control; for Plant response rating, Ryegrass, Italian: 500 g ai/ha, visual injury, 0 to 100 scale (0 no effect, 100 complete control)
Outline: as §1

blackgrass [7] = assay: Test A postemergence; type: in vivo, Alopecurus myosuroides; details: postemergence, 10 days; for Blackgrass plant response rating: 125 g ai/ha, 0 to 100 scale, 0 no effect, 100 complete control; for Plant response rating, Blackgrass: 500 g ai/ha, visual injury, 0 to 100 scale (0 no effect, 100 complete control)
Outline: as §1

corn [8] = assay: Test A postemergence; type: in vivo, Zea mays; details: postemergence, 10 days; for Corn plant response rating: 125 g ai/ha, 0 to 100 scale, 0 no effect, 100 complete control; for Plant response rating, Corn: 500 g ai/ha, visual injury, 0 to 100 scale (0 no effect, 100 complete control)
Outline: as §1

corn [9] = assay: Test A preemergence; type: in vivo, Zea mays; details: 0 to 100 scale
Outline: as §1

blackgrass [10] = assay: Test A preemergence; type: in vivo, Alopecurus myosuroides; details: 0 to 100 scale
Outline: as §1

soybean [11] = assay: Test A preemergence; type: in vivo, Glycine max; details: 0 to 100 scale
Outline: as §1

barnyardgrass [12] = assay: Test B flooded paddy test; type: in vivo, Echinochloa crus-galli; details: 250 g ai/ha, Flood, 13 days, 0 to 100 scale (0 no effect, 100 complete control)
Outline: as §2

barnyardgrass [13] = assay: Test A postemergence; type: in vivo, Echinochloa crusgalli; details: postemergence, 10 days; for Barnyardgrass plant response rating: 125 g ai/ha, 0 to 100 scale, 0 no effect, 100 complete control; for Plant response rating, Barnyardgrass: 500 g ai/ha, visual injury, 0 to 100 scale (0 no effect, 100 complete control)
Outline: as §1

kochia [14] = assay: Test A preemergence; type: in vivo, Bassia scoparia; details: 0 to 100 scale
Outline: as §1

galium = assay: Test A postemergence; type: in vivo, Galium aparine; details: postemergence, 10 days; for Plant response rating, Galium: 500 g ai/ha, visual injury, 0 to 100 scale (0 no effect, 100 complete control)
Outline: as §1

rice = assay: Test B flooded paddy test; type: in vivo, Oryza sativa; details: 250 g ai/ha, Flood, 13 days, 0 to 100 scale (0 no effect, 100 complete control)
Outline: as §2

foxtail, giant [15] = assay: Test A postemergence; type: in vivo, Setaria faberi; details: postemergence, 10 days; for Foxtail, Giant plant response rating: 125 g ai/ha, 0 to 100 scale, 0 no effect, 100 complete control; for Plant response rating, Foxtail, Giant: 500 g ai/ha, visual injury, 0 to 100 scale (0 no effect, 100 complete control)
Outline: as §1

barnyardgrass [16] = assay: Test A preemergence; type: in vivo, Echinochloa crusgalli; details: visual injury after 10 days, 0 to 100 scale, 0 is no effect, 100 is complete control
Outline: as §1

ryegrass, Italian [17] = assay: Test A preemergence; type: in vivo, Lolium multiflorum; details: 0 to 100 scale
Outline: as §1

ducksalad = assay: Test B flooded paddy test; type: in vivo, Heteranthera limosa; details: 250 g ai/ha, Flood, 13 days, 0 to 100 scale (0 no effect, 100 complete control)
Outline: as §2

oat, wild [18] = assay: Test A preemergence; type: in vivo, Avena fatua; details: 0 to 100 scale
Outline: as §1

kochia [19] = assay: Test A postemergence; type: in vivo, Bassia scoparia; details: postemergence, 10 days; for Kochia plant response rating: 125 g ai/ha, 0 to 100 scale, 0 no effect, 100 complete control; for Plant response rating, Kochia: 500 g ai/ha, visual injury, 0 to 100 scale (0 no effect, 100 complete control)
Outline: as §1

pigweed, palmer [20] = assay: Test A postemergence; type: in vivo, Amaranthus palmeri; details: postemergence, 10 days; for Plant response rating, Pigweed, Palmer: 500 g ai/ha, visual injury, 0 to 100 scale (0 no effect, 100 complete control)
Outline: as §1

oat, wild [21] = assay: Test A postemergence; type: in vivo, Avena fatua; details: postemergence, 10 days; for Oat, Wild plant response rating: 125 g ai/ha, 0 to 100 scale, 0 no effect, 100 complete control; for Plant response rating, Oat, Wild: 500 g ai/ha, visual injury, 0 to 100 scale (0 no effect, 100 complete control)
Outline: as §1

wheat [22] = assay: Test A postemergence; type: in vivo, Triticum aestivum; details: postemergence, 10 days; for Wheat plant response rating: 125 g ai/ha, 0 to 100 scale, 0 no effect, 100 complete control; for Plant response rating, Wheat: 500 g ai/ha, visual injury, 0 to 100 scale (0 no effect, 100 complete control)
Outline: as §1

pigweed, palmer [23] = assay: Test A preemergence; type: in vivo, Amaranthus palmeri; details: 0 to 100 scale
Outline: as §1

[24] = 500 g ai/ha, visual injury after 10 days, 0 is no effect, 100 is complete control
[25] = 125 g ai/ha, 0 to 100 scale, 0 no effect, 100 complete control

## CC(C)c1ncn(-c2ccc(OC(F)F)c(C(=O)N3C[C@H](C)Oc4c(Cl)cccc43)c2)n1 [Compound 143]
horseweed
  Horseweed plant response rating: 20
  Plant response rating, Horseweed: 50
Soybean [1]
  Soybean plant response rating: 100
  Plant response rating, Soybean: 100
Ragweed [2]
  Ragweed plant response rating: 40
  Plant response rating, Ragweed: 70
sedge, umbrella
  Plant response rating, Sedge, Umbrella: 98
Wheat [3]; 125 g ai/ha
  Plant response rating, Wheat: 90
Wheat [3]; [24]
  Plant response rating, Wheat: 50
Ragweed [4]; 125 g ai/ha
  Plant response rating, Ragweed: 30
Ragweed [4]; [24]
  Plant response rating, Ragweed: 90
foxtail, giant [5]; 125 g ai/ha
  Plant response rating, Foxtail, Giant: 100
foxtail, giant [5]; [24]
  Plant response rating, Foxtail, Giant: 100
ryegrass, Italian [6]
  Ryegrass, Italian plant response rating: 50
  Plant response rating, Ryegrass, Italian: 80
Blackgrass [7]
  Blackgrass plant response rating: 80
  Plant response rating, Blackgrass: 90
Corn [8]
  Corn plant response rating: 90
  Plant response rating, Corn: 90
Corn [9]; 125 g ai/ha
  Plant response rating, Corn: 10
Corn [9]; [24]
  Plant response rating, Corn: 40
Blackgrass [10]; 125 g ai/ha
  Plant response rating, Blackgrass: 40
Blackgrass [10]; [24]
  Plant response rating, Blackgrass: 70
Soybean [11]; 125 g ai/ha
  Plant response rating, Soybean: 100
Soybean [11]; [24]
  Plant response rating, Soybean: 100
Barnyardgrass [12]
  Plant response rating, Barnyardgrass: 40
Barnyardgrass [13]
  Barnyardgrass plant response rating: 50
  Plant response rating, Barnyardgrass: 90
Kochia [14]; 125 g ai/ha
  Plant response rating, Kochia: 80
Kochia [14]; [24]
  Plant response rating, Kochia: 100
galium; [25]
  Galium plant response rating: 100
galium
  Plant response rating, Galium: 100
rice
  Plant response rating, Rice: 0
foxtail, giant [15]
  Foxtail, Giant plant response rating: 90
  Plant response rating, Foxtail, Giant: 90
Barnyardgrass [16]; 125 g ai/ha
  Plant response rating, Barnyardgrass: 90
Barnyardgrass [16]; 500 g ai/ha
  Plant response rating, Barnyardgrass: 100
ryegrass, Italian [17]; 125 g ai/ha
  Plant response rating, Ryegrass, Italian: 80
ryegrass, Italian [17]; [24]
  Plant response rating, Ryegrass, Italian: 90
ducksalad
  Plant response rating, Ducksalad: 65
oat, wild [18]; 125 g ai/ha
  Plant response rating, Oat, Wild: 60
oat, wild [18]; [24]
  Plant response rating, Oat, Wild: 90
Kochia [19]
  Kochia plant response rating: 90
  Plant response rating, Kochia: 90
pigweed, palmer [20]; [25]
  Pigweed, Palmer plant response rating: 60
pigweed, palmer [20]
  Plant response rating, Pigweed, Palmer: 80
oat, wild [21]
  Oat, Wild plant response rating: 10
  Plant response rating, Oat, Wild: 70
Wheat [22]
  Wheat plant response rating: 30
  Plant response rating, Wheat: 40
pigweed, palmer [23]; 125 g ai/ha
  Plant response rating, Pigweed, Palmer: 100
pigweed, palmer [23]; [24]
  Plant response rating, Pigweed, Palmer: 100

## Cc1nc(C)n(-c2cccc(C(=O)N3C[C@H](C)Oc4c(Cl)cccc43)c2)n1 [Compound 142]
horseweed
  Horseweed plant response rating: 0
  Plant response rating, Horseweed: 0
Soybean [1]
  Soybean plant response rating: 40
  Plant response rating, Soybean: 40
Ragweed [2]
  Ragweed plant response rating: 0
  Plant response rating, Ragweed: 20
sedge, umbrella
  Plant response rating, Sedge, Umbrella: 0
Wheat [3]; 125 g ai/ha
  Plant response rating, Wheat: 0
Wheat [3]; [24]
  Plant response rating, Wheat: 0
Ragweed [4]; 125 g ai/ha
  Plant response rating, Ragweed: 0
Ragweed [4]; [24]
  Plant response rating, Ragweed: 0
foxtail, giant [5]; 125 g ai/ha
  Plant response rating, Foxtail, Giant: 30
foxtail, giant [5]; [24]
  Plant response rating, Foxtail, Giant: 90
ryegrass, Italian [6]
  Ryegrass, Italian plant response rating: 0
  Plant response rating, Ryegrass, Italian: 20
Blackgrass [7]
  Blackgrass plant response rating: 0
  Plant response rating, Blackgrass: 60
Corn [8]
  Corn plant response rating: 10
  Plant response rating, Corn: 10
Corn [9]; 125 g ai/ha
  Plant response rating, Corn: 0
Corn [9]; [24]
  Plant response rating, Corn: 10
Blackgrass [10]; 125 g ai/ha
  Plant response rating, Blackgrass: 0
Blackgrass [10]; [24]
  Plant response rating, Blackgrass: 30
Soybean [11]; 125 g ai/ha
  Plant response rating, Soybean: 0
Soybean [11]; [24]
  Plant response rating, Soybean: 0
Barnyardgrass [12]
  Plant response rating, Barnyardgrass: 0
Barnyardgrass [13]
  Barnyardgrass plant response rating: 10
  Plant response rating, Barnyardgrass: 10
Kochia [14]; 125 g ai/ha
  Plant response rating, Kochia: 0
Kochia [14]; [24]
  Plant response rating, Kochia: 40
galium
  Plant response rating, Galium: 30
rice
  Plant response rating, Rice: 0
foxtail, giant [15]
  Foxtail, Giant plant response rating: 30
  Plant response rating, Foxtail, Giant: 80
Barnyardgrass [16]; 125 g ai/ha
  Plant response rating, Barnyardgrass: 30
Barnyardgrass [16]; 500 g ai/ha
  Plant response rating, Barnyardgrass: 50
ryegrass, Italian [17]; 125 g ai/ha
  Plant response rating, Ryegrass, Italian: 30
ryegrass, Italian [17]; [24]
  Plant response rating, Ryegrass, Italian: 50
ducksalad
  Plant response rating, Ducksalad: 0
oat, wild [18]; 125 g ai/ha
  Plant response rating, Oat, Wild: 0
oat, wild [18]; [24]
  Plant response rating, Oat, Wild: 0
Kochia [19]
  Kochia plant response rating: 10
  Plant response rating, Kochia: 50
pigweed, palmer [20]
  Plant response rating, Pigweed, Palmer: 20
oat, wild [21]
  Oat, Wild plant response rating: 0
  Plant response rating, Oat, Wild: 0
Wheat [22]
  Wheat plant response rating: 10
  Plant response rating, Wheat: 10
pigweed, palmer [23]; 125 g ai/ha
  Plant response rating, Pigweed, Palmer: 0
pigweed, palmer [23]; [24]
  Plant response rating, Pigweed, Palmer: 20
